Test in all cases: Antibacterial activity, microbroth dilution method (MIC)
Test [1] deals with control Gram-negative E. coli 25922 strain. It counts as cell-based, Escherichia coli. The conditions noted are these: Escherichia coli. A digest of the protocol: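 In a microbroth dilution test, the minimum inhibitory concentration was defined as the lowest compound level preventing growth seen by eye, and was given in μg/mL.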
Test [2] has as its system super sensitive Gram-negative Escherichia coli (E. coli) BAS849. The class given is cell-based. As to conditions: Escherichia coli, read-out: MIC, E. coli BAS849. The essentials: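 Potency is reported as minimum inhibitory concentration in μg/mL, determined by broth microdilution as the lowest level of compound that stops growth visible to the eye.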
Test [3] deals with Gram-positive Staphylococcus aureus (S. aureus) 29213. It counts as cell-based. As to conditions: Staphylococcus aureus, Gram-positive S. aureus 29213. A digest of the protocol:
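Using broth microdilution, MIC endpoints (μg/mL) mark where visible growth no longer appears; the panel spans sensitive and control Gram-negative strains plus a Gram-positive strain.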

The mark [4] stands for this setting: super sensitive Gram-negative E. coli BAS849, microbroth dilution.

The results in this text go back to patent US20150038438A1, “ANTIBACTERIAL COMPOUNDS AND METHODS FOR USE” (PTC THERAPEUTICS, INC., priority 2011, published 2015).

≈ marks a conversion by molar mass, not a printed value. Where a name gives a salt, the structure may show the parent alone. Read-outs that look alike come from different tables or passages of the source.

Usually MIC stands for the lowest concentration found to suppress growth.

As to `CC1CCc2c([nH]c(=O)c(C(=O)O)c2O)-c2cc3cc(CNC4(C)CC4)n(C)c3cc21.Cl` (stereo not drawn) [Cpd 66, 4-hydroxy-7,9-dimethyl-10-(((1-methylcyclopropyl)amino)methyl)-2-oxo-1,2,5,6,7,9-hexahydropyrido[3′,2′:6,7]cyclohepta[1,2-f]indole-3-carboxylic acid hydrochloride], the MIC in test [1] was in the range of 12.5 to 150 µg/mL; in test [2] (setting [4]), 1 to 3.5 µg/mL; in test [3] it was 3.5 to 12.5 µg/mL.

Turning to `CCNCc1cc2cc3c(cc2n1C)CCC(C)c1c-3[nH]c(=O)c(C(=O)O)c1O.Cl` (stereo not drawn) [Cpd 67, 10-((ethylamino)methyl)-4-hydroxy-5,9-dimethyl-2-oxo-1,2,5,6,7,9-hexahydropyrido[3′,2′:6,7]cyclohepta[1,2-f]indole-3-carboxylic acid hydrochloride], the results for the MIC in test [1], in test [2] (setting [4]) and in test [3] were 1 to 3.5 µg/mL, less than 1 µg/mL and 12.5 to 150 µg/mL, respectively.

Take `CNCc1cc2cc3c(cc2n1C)C=CCc1c-3[nH]c(=O)c(C(=O)O)c1O.Cl` [Cpd 68, 4-hydroxy-9-methyl-10-((methylamino)methyl)-2-oxo-1,2,5,9-tetrahydropyrido[3′,2′:6,7]cyclohepta[1,2-f]indole-3-carboxylic acid hydrochloride]: the MIC in test [1] was less than 1 µg/mL; in test [2] (setting [4]) it was less than 1 µg/mL; in test [3], 3.5 to 12.5 µg/mL.

With `CCNCc1cc2cc3c(cc2n1C)C=CCc1c-3[nH]c(=O)c(C(=O)O)c1O.Cl` [Cpd 69, 10-((ethylamino)methyl)-4-hydroxy-9-methyl-2-oxo-1,2,5,9-tetrahydropyrido[3′,2′:6,7]cyclohepta[1,2-f]indole-3-carboxylic acid hydrochloride], the MIC in test [1] was less than 1 µg/mL; in test [2] (setting [4]) it was less than 1 µg/mL; in test [3] it was 12.5 to 150 µg/mL.

Turning to `CCNCc1cc2cc3c(cc2n1C)C(C)=CCc1c-3[nH]c(=O)c(C(=O)O)c1O.Cl` [Cpd 70, 10-((ethylamino)methyl)-4-hydroxy-7,9-dimethyl-2-oxo-1,2,5,9-tetrahydropyrido[3′,2′:6,7]cyclohepta[1,2-f]indole-3-carboxylic acid hydrochloride], the MIC in test [1], in test [2] (setting [4]) and in test [3] was 3.5 to 12.5 µg/mL each time.

Regarding `CC1Oc2cc(Cl)ccc2-c2c1cc(C(=O)O)c(=O)n2Cc1ccccc1` (stereo not drawn) [Cpd 72, 1-benzyl-8-chloro-5-methyl-2-oxo-2,5-dihydro-1H-chromeno[4,3-b]pyridine-3-carboxylic acid], the MIC is 12.5 to 150 µg/mL (≈ 32.7 to 393 µM) in test [1], 3.5 to 12.5 µg/mL (≈ 9.17 to 32.7 µM) in test [2] (setting [4]) and 3.5 to 12.5 µg/mL (≈ 9.17 to 32.7 µM) in test [3].

Turning to `CC1Oc2ccccc2-c2[nH]c(=O)c(C(=O)O)cc21` (stereo not drawn) [Cpd 73, 5-methyl-2-oxo-2,5-dihydro-1H-chromeno[4,3-b]pyridine-3-carboxylic acid], the minimum inhibitory concentration (MIC) in test [1], in test [2] (setting [4]) and in test [3] was 12.5 to 150 µg/mL (≈ 48.6 to 583 µM) in each case.

Take `CC1Oc2cc(N3CCCC3)ccc2-c2[nH]c(=O)c(C(=O)O)cc21` (stereo not drawn) [Cpd 74, 5-methyl-2-oxo-8-(pyrrolidin-1-yl)-2,5-dihydro-1H-chromeno[4,3-b]pyridine-3-carboxylic acid]: the MIC lay within 12.5 to 150 µg/mL (≈ 38.3 to 460 µM) in test [1], 1 to 3.5 µg/mL (≈ 3.06 to 10.7 µM) in test [2] (setting [4]) and 12.5 to 150 µg/mL (≈ 38.3 to 460 µM) in test [3].

As to `CC1Oc2cc(N3CCC(N(C)C)C3)ccc2-c2[nH]c(=O)c(C(=O)O)cc21.Cl` (stereo not drawn) [Cpd 75, 8-(3-(dimethylamino)pyrrolidin-1-yl)-5-methyl-2-oxo-2,5-dihydro-1H-chromeno[4,3-b]pyridine-3-carboxylic acid hydrochloride], the MIC in test [1], in test [2] (setting [4]) and in test [3] was 12.5 to 150 µg/mL each time.

As for `CN(C)c1ccc2c(c1)OCCc1c-2[nH]c(=O)c(C(=O)O)c1O` [Cpd 76, 9-(dimethylamino)-4-hydroxy-2-oxo-1,2,5,6-tetrahydrobenzo[2,3]oxepino[4,5-b]pyridine-3-carboxylic acid], the MIC in test [1] is 12.5 to 150 µg/mL (≈ 39.5 to 474 µM); in test [2] (setting [4]) it was less than 1 µg/mL; in test [3], 12.5 to 150 µg/mL (≈ 39.5 to 474 µM).

In the case of `O=C(O)c1c(O)c2c([nH]c1=O)-c1ccc(N3CCCC3)cc1OCC2` [Cpd 77, 4-hydroxy-2-oxo-9-(pyrrolidin-1-yl)-1,2,5,6-tetrahydrobenzo[2,3]oxepino[4,5-b]pyridine-3-carboxylic acid], the MIC is 12.5 to 150 µg/mL (≈ 36.5 to 438 µM) in test [1], less than 1 µg/mL in test [2] (setting [4]) and 3.5 to 12.5 µg/mL (≈ 10.2 to 36.5 µM) in test [3].

As for `CN(C)C1CCN(c2ccc3c(c2)OCCc2c-3[nH]c(=O)c(C(=O)O)c2O)C1.Cl` (stereo not drawn) [Cpd 78, 9-(3-(dimethylamino)pyrrolidin-1-yl)-4-hydroxy-2-oxo-1,2,5,6-tetrahydrobenzo[2,3]oxepino[4,5-b]pyridine-3-carboxylic acid hydrochloride], the values for the MIC in test [1], in test [2] (setting [4]) and in test [3] were 12.5 to 150 µg/mL, 1 to 3.5 µg/mL and 12.5 to 150 µg/mL, respectively.

Turning to `O=C(O)c1c(O)c2c([nH]c1=O)-c1ccc(N3C[C@@H]4[C@H](C3)[C@H]4N(Cc3ccccc3)Cc3ccccc3)cc1OCC2` [Cpd 79, 9-((cis,cis)-6-(dibenzylamino)-3-azabicyclo[3.1.0]hexan-3-yl)-4-hydroxy-2-oxo-1,2,5,6-tetrahydrobenzo[2,3]oxepino[4,5-b]pyridine-3-carboxylic acid trifluoroacetate], the MIC in test [1], in test [2] and in test [3] was 12.5 to 150 µg/mL in each case.

Turning to `N[C@@H]1[C@H]2CN(c3ccc4c(c3)OCCc3c-4[nH]c(=O)c(C(=O)O)c3O)C[C@@H]12` [Cpd 80, 9-((cis,cis)-6-amino-3-azabicyclo[3.1.0]hexan-3-yl)-4-hydroxy-2-oxo-1,2,5,6-tetrahydrobenzo[2,3]oxepino[4,5-b]pyridine-3-carboxylic acid hydrochloride], the MIC in test [1] is 1 to 3.5 µg/mL; in test [2] (setting [4]), less than 1 µg/mL; in test [3], 12.5 to 150 µg/mL.

With `O=C(O)c1cc2c([nH]c1=O)-c1ccc(N3CCCC3)cc1OCC2` [Cpd 81, 2-oxo-9-(pyrrolidin-1-yl)-1,2,5,6-tetrahydrobenzo[2,3]oxepino[4,5-b]pyridine-3-carboxylic acid], the MIC in test [1] was 12.5 to 150 µg/mL (≈ 38.3 to 460 µM); in test [2] (setting [4]), less than 1 µg/mL; in test [3] it was 12.5 to 150 µg/mL (≈ 38.3 to 460 µM).

With `CN(C)C1CCN(c2ccc3c(c2)OCCc2cc(C(=O)O)c(=O)[nH]c2-3)C1.Cl` (stereo not drawn) [Cpd 82, 9-(3-(dimethylamino)pyrrolidin-1-yl)-2-oxo-1,2,5,6-tetrahydrobenzo[2,3]oxepino[4,5-b]pyridine-3-carboxylic acid hydrochloride], the MIC in test [1] was in the range of 12.5 to 150 µg/mL; in test [2] (setting [4]), 3.5 to 12.5 µg/mL; in test [3], 12.5 to 150 µg/mL.

As to `CC1COc2cc(N3CCCC3)ccc2-c2[nH]c(=O)c(C(=O)O)c(O)c21` (stereo not drawn) [Cpd 83, 4-hydroxy-5-methyl-2-oxo-9-(pyrrolidin-1-yl)-1,2,5,6-tetrahydrobenz[2,3]oxepino[4,5-b]pyridine-3-carboxylic acid], the figures for the MIC in test [1], in test [2] (setting [4]) and in test [3] were 12.5 to 150 µg/mL (≈ 35.1 to 421 µM), less than 1 µg/mL and 3.5 to 12.5 µg/mL (≈ 9.82 to 35.1 µM), respectively.

For `CC1COc2cc(N3CCC(N(C)C)C3)ccc2-c2[nH]c(=O)c(C(=O)O)c(O)c21.Cl` (stereo not drawn) [Cpd 84, 9-(3-(dimethylamino)pyrrolidin-1-yl)-4-hydroxy-5-methyl-2-oxo-1,2,5,6-tetrahydrobenzo[2,3]oxepino[4,5-b]pyridine-3-carboxylic acid hydrochloride], the MIC in test [1] fell in the range of 12.5 to 150 µg/mL; in test [2] (setting [4]), 1 to 3.5 µg/mL; in test [3] it was 12.5 to 150 µg/mL.

For `CC1COc2cc(N3C[C@@H]4[C@H](C3)[C@H]4N(Cc3ccccc3)Cc3ccccc3)ccc2-c2[nH]c(=O)c(C(=O)O)c(O)c21` (stereo partly drawn) [Cpd 85, 9-((cis,cis)-6-(dibenzylamino)-3-azabicyclo[3.1.0]hexan-3-yl)-4-hydroxy-5-methyl-2-oxo-1,2,5,6-tetrahydrobenzo[2,3]oxepino[4,5-b]pyridine-3-carboxylic acid hydrochloride], the MIC in test [1], in test [2] (setting [4]) and in test [3] was 12.5 to 150 µg/mL in each case.

In the case of `CC1COc2cc(N3C[C@@H]4[C@@H](N)[C@@H]4C3)ccc2-c2[nH]c(=O)c(C(=O)O)c(O)c21` (stereo partly drawn) [Cpd 86, 9-((cis,cis)-6-amino-3-azabicyclo[3.1.0]hexan-3-yl)-4-hydroxy-5-methyl-2-oxo-1,2,5,6-tetrahydrobenzo[2,3]oxepino[4,5-b]pyridine-3-carboxylic acid hydrochloride], the MIC in test [1] is 3.5 to 12.5 µg/mL; in test [2] (setting [4]), less than 1 µg/mL; in test [3], 12.5 to 150 µg/mL.

With `Cn1ccc2cc3c(cc21)OCCc1c-3[nH]c(=O)c(C(=O)O)c1O` [Cpd 87, 4-hydroxy-9-methyl-2-oxo-2,5,6,9-tetrahydro-1H-pyrido[2′,3′:4,5]oxepino[3,2-f]indole-3-carboxylic acid], the MIC in test [1] was 3.5 to 12.5 µg/mL (≈ 10.7 to 38.3 µM); in test [2] (setting [4]), less than 1 µg/mL; in test [3], 12.5 to 150 µg/mL (≈ 38.3 to 460 µM).

Turning to `CNCc1cc2cc3c(cc2n1C)OCCc1c-3[nH]c(=O)c(C(=O)O)c1O.Cl` [Cpd 88, 4-hydroxy-9-methyl-10-((methylamino)methyl)-2-oxo-2,5,6,9-tetrahydro-1H-pyrido[2′,3′:4,5]oxepino[3,2-f]indole-3-carboxylic acid hydrochloride], the MIC in test [1] is 1 to 3.5 µg/mL; in test [2] (setting [4]), less than 1 µg/mL; in test [3] it was 12.5 to 150 µg/mL.

Turning to `CCNCc1cc2cc3c(cc2n1C)OCCc1c-3[nH]c(=O)c(C(=O)O)c1O.Cl` [Cpd 89, 10-((ethylamino)methyl)-4-hydroxy-9-methyl-2-oxo-2,5,6,9-tetrahydro-1H-pyrido[2′,3′:4,5]oxepino[3,2-f]indole-3-carboxylic acid hydrochloride], the figures for the MIC in test [1], in test [2] (setting [4]) and in test [3] were less than 1 µg/mL, less than 1 µg/mL and 12.5 to 150 µg/mL, respectively.

For the molecule `CC(C)NCc1cc2cc3c(cc2n1C)OCCc1c-3[nH]c(=O)c(C(=O)O)c1O.Cl` [Cpd 90, 4-hydroxy-10-((isopropylamino)methyl)-9-methyl-2-oxo-2,5,6,9-tetrahydro-1H-pyrido[2′,3′:4,5]oxepino[3,2-f]indole-3-carboxylic acid hydrochloride], the MIC in test [1] is less than 1 µg/mL; in test [2] (setting [4]), less than 1 µg/mL; in test [3] it was 12.5 to 150 µg/mL.
